The text below walks through data of PMC5072737, “Heterologous Expression and Delivery of Biologically Active Exendin-4 by Lactobacillus paracasei L14” (PLoS ONE, 2016).

The test system of data set [1] is INS-1 cells. Put plainly: Staurosporine-induced apoptosis assay (Annexin V-PI, flow cytometry) in INS-1 cells. The class given is cell-based, rat. To be noted: pretreatment with the agent (none for staurosporine alone), then staurosporine 1 μmol/l for 1 h, n = 3. Here is the method: INS-1 cells were seeded in 96-well plates at a density of 2 × 10^4 cells per well. After 36 h incubation, the cells were grown to nearly 60% confluence and the medium was replaced with RPMI 1640–exendin-4 medium diluted 1:1 (v/v) with fresh RPMI 1640 containing 10% FBS (100 μl per well). Standard GLP-1 in RPMI 1640 medium (100 nmol/l) was used as a positive control and pure RPMI 1640 medium was used as a blank control. The mixture was incubated for 24 h. The PI3K (phosphatidylinositol-3-kinase) antagonist treatment cells were preincubated with wortmannin (100 nmol/l) for 15 min before the treatment. The number of viable cells was then analyzed by cell counting kit-8 (CCK-8) assay (Biyuntian Biotech Co. Ltd.) based on the formation of formazan with sensitive changes in OD450 values. […] The absorbance was read at 450 nm using a Multiskan MK3 ELISA plate reader to determine the in vitro cell proliferation. For apoptosis assays, staurosporine (1 μmol/l) was added in all treatment groups for 1 h, after which the cells were treated with Annexin V-PI (propidium iodide) cell apoptosis kit (Biyuntian Biotech Co. Ltd.) and apoptosis was measured by flow cytometry using a FACScan (Becton Dickinson).

The next data set deals with Caco-2 cell monolayer. Put plainly: Transport of exendin-4 through Caco-2 monolayer. The class given is in vitro ADME. The conditions noted are these: Caco-2 monolayer (~21 days, transwell 0.4 μm, 4.67 cm^2), apical to basolateral, s-DMEM without antibiotics, 37°C; first 3 h; ELISA; mean ± SD, n = 3. The protocol: Caco-2 cells (10–20 passages) were cultivated in 25-cm^2 flasks in DMEM supplemented with 10% (v/v) FBS, 1% (v/v) non-essential amino acids and 100 IU/ml penicillin–100μg/ml streptomycin (s-DMEM) at 37°C in an atmosphere of 5% CO2 and high humidity. Upon 80% confluence, cells were harvested using 0.25% trypsin EDTA and seeded on the polyester inserts (0.4 μm pore size, 24 mm diameter, 4.67 cm^2 grown surface, Costar, Corning, NY) in 6-well transwell plates at a density of 10^5 cell/cm^2 and incubated under normal cell culture conditions. The culture medium was replaced every other day for the first week and then every day until it was ready for transport studies when the monolayer became confluent and the transepithelial electrical resistance (TEER) reading reached a plateau (about 21 days). The TEER was monitored according to the method described by Hubatsch et al.
After the Caco-2 monolayer cell became confluent, the culture medium was washed twice by PBS (pH 7.4). […] Caco-2 cell viability was then measured by trypan blue assay at 0, 2, 4 and 6 h after the addition of L14/pMG76e-exendin-4 cells. […] At predetermined time points, 100 and 200 μl supernatant samples were withdrawn from the apical and basolateral sides, respectively, for exendin-4 quantification by ELISA and replaced with an equal volume of s-DMEM without the antibiotics. […]

Data set [2] deals with INS-1 cells. Put plainly: Insulin secretion assay in INS-1 cells. The conditions noted are these: 5 mM glucose. The class given is cell-based, rat. Here is the method: (§1) INS-1 cells were seeded in 24-well plates at a density of 10^5 cells per well and grown to 100% confluence before the assay. The medium was changed 24 h before the assay. For the assay, cells were quickly rinsed in 1 ml Hank's balanced salt solution (HBSS) with 3 mM glucose followed by a 2 h preincubation with 1 ml of the same buffer. […] At the end of the incubation, supernatant was collected and centrifuged for 10 min at 4000 × g at 4°C and insulin concentration was determined by ELISA kit (Millipore, St. Charles, MO, USA). The cells were collected to analyze mRNA expression of pancreatic duodenal homeobox-1 (PDX-1) and insulin gene (Insulin).

Another data set concerns Insulin (Ins1 and Ins2). Put plainly: qRT-PCR of insulin gene mRNA expression in INS-1 cells. Type of data set: cell-based, Rattus norvegicus. The conditions noted are these: INS-1 cells treated 2 h, ΔΔCT, β-actin reference, n = 3. Here is the method:
as §1, with “buffer. Then the buffer was discarded, RPMI 1640–exendin-4 medium diluted 1:1 (v/v) with fresh medium plus 5 mM glucose (600 μl per well) were added, and the mixture was incubated for 2 h. Standard GLP-1 (100 nmol/l) in RPMI 1640 medium was used as a positive control.” for “buffer.”
(§2) Total RNA was isolated from INS-1 cells using TRIzol Reagent (Invitrogen). Reverse transcription was performed using PrimeScript II first-strand cDNA synthesis kit (Takara, China), containing 1 μg of total RNA as the template. qRT-PCR was carried out using a SYBR Green assay kit (Tiangen). Specific primers for PDX-1, Insulin and the internal control gene β-actin (Actb) from Rattus norvegicus were designed with Primer Premier 5 software (Table 2). […]
For orientation: Real-time PCR tracks product formation cycle by cycle.

For another data set, the system named is PDX-1. Put plainly: qRT-PCR of PDX-1 mRNA expression in INS-1 cells. The class given is cell-based, Rattus norvegicus. The conditions noted are these: INS-1 cells treated 2 h, ΔΔCT, β-actin reference, n = 3. Here is the method:
as §1, with “buffer. Then the buffer was discarded, RPMI 1640–exendin-4 medium diluted 1:1 (v/v) with fresh medium plus 5 mM glucose (600 μl per well) were added, and the mixture was incubated for 2 h. Standard GLP-1 (100 nmol/l) in RPMI 1640 medium was used as a positive control.” for “buffer.”
as §2

The conditions of data set [3]: native GLP-1, rapid inactivation by DPP-IV; cited from earlier work. The source says:
Glucagon-like peptide-1 (GLP-1) is a potent incretin produced by L-cells of the distal ileum and colon in response to nutrient intake. It has a variety of antidiabetic effects that are mediated through β-cells in pancreatic islets and peripheral tissues. These include not only the promotion of glucose-dependent insulin secretion and inhibition of glucagon secretion, but also inhibition of food intake and body weight gain by delaying gastric emptying, increasing β-cell mass, and enhancing insulin sensitivity. However, despite its favorable antidiabet ...

As for `CN[C@@H]1C[C@H]2O[C@@](C)([C@@H]1OC)n1c3ccccc3c3c4c(c5c6ccccc6n2c5c31)C(=O)NC4` [staurosporine], the “Number of earliest-stage apoptotic cells, % of the control with no staurosporine” value with INS-1 cells [1] was 264.3%.
As for exendin-4 [standard exendin-4], the “Exendin-4 transport rate through the cell monolayer” value in the data set on Caco-2 cell monolayer was determined as 0.15 ± 0.013 pMol cm^-2 h^-1.
With Glucagon-like peptide-1 [GLP-1], the “Number of earliest-stage apoptotic cells, % of the control with no staurosporine” value in the data set on INS-1 cells [1] amounted to 170%. Further, the “Insulin secretion, higher than the blank control (RPMI 1640 only)” value in the data set with INS-1 cells [2] (2 h, blank control 66.5 ± 0.5 ng/ml) is 7%. Further, the “Insulin secretion (insulin concentration in supernatant)” value in the data set on INS-1 cells [2] (2 h incubation, conditioned medium diluted 1:1 with fresh medium, GLP-1 at 100 nmol/l, insulin ELISA, mean ± SD, n = 3) was 71.4 ± 0.7 ng/mL. Moreover, in the data set on Insulin (Ins1 and Ins2), the “Insulin mRNA expression, fold of the blank control” value is listed as 1.7 fold. In addition, the “PDX-1 mRNA expression, fold of the blank control” value with PDX-1 stood at 1.9 fold. Further, the Half-life in vivo in data set [3] was 1 to 2 min.
